Here are results for ten compounds from patent publication US12516388B2, “Biosensors for polyketide extender units and uses thereof” (NORTH CAROLINA STATE UNIVERSITY, priority 2019, dated 2026).

Assay [1] has as its target T1, FapR (Bacillus subtilis, UniProt O34835). Particulars: previously reported; cited from earlier work.
Target sequence in this assay (O34835 whole entry): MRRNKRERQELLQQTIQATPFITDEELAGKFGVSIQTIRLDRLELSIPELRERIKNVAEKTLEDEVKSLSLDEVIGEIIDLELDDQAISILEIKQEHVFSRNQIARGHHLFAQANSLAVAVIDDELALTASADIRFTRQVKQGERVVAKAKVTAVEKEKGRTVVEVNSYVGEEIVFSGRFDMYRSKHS
Assay [2] concerns the target T2, FapR-fapO complex (Bacillus subtilis, UniProt O34835).
T2 construct: made in house; host or cells: E. coli BL21(DE3)
Nature of the assay: Electrophoretic mobility shift assay of FapR and fapO. As to conditions: titrated against FapR, 40 bp fapO fragment; read-out: concentration at which half of the DNA would be bound. Format: binding, B. subtilis. How it is done: Next, the cell-free FapR biosensor was assayed with each α-carboxyacyl-CoA at a fixed concentration (150 μM). […] This robust activity of pgmCoA is due in part to the increased rigidity of the alkyne side-chain or additional interactions of the alkynyl […] with the FapR ligand-binding site, with the […] side-chain of the nearby Phe99 (FIG. 5A). […] To provide further evidence that FapR is de-repressed by derivatives of mCoA, FapR was tested in vitro for DNA-binding and release by electrophoretic mobility shift assay (EMSA) in the presence of mCoA or mmCoA. Using purified wild-type FapR protein, EMSA was run with a 40 bp DNA fragment containing the fapO binding site (FIG. 7).
Electrophoretic mobility shift assay. The fapO oligonucleotides 5′-[…]-3′ (SEQ ID NO:30) and 5′-[…]-3′ (SEQ ID NO:31) were annealed per standard procedure. Briefly, the two oligos were added to a final concentration of 10 μM each in annealing buffer (19 mM Tris, pH 7.5, 50 mM NaCl, 1 mM EDTA) and heated to 95° C. for 2 minutes before cooling to 25° C. at a rate of −1° C. min^−1. […] Reactions were then analyzed by electrophoresis on a 6% PAGE gel at 220 V. The gel was stained with SYBR Green I and imaged on a Typhoon FLA 7000.
For orientation: Mobility shift assays separate free from complexed probe on a gel.

For assay [3], the target named is T1, FapR. Briefly: Cell-free transcription-translation (TX-TL) FapR/T7-fapO-sfGFP assay. In kind it is biochemical, B. subtilis. More on the design: made in house; host or cells: E. coli BL21(DE3). Particulars: for effector of FapR as judged by cell-free fluorescence / fluorescence response (de-repression of FapR/T7-fapO-sfGFP) compared among thioesters: each thioester at fixed concentration (150 μM). From the text:
To this end, the reporter module of the FapR 2H8 biosensor was cloned into pET28a, replacing the typical lacO site controlling the T7 promoter with a single fapO binding site upstream of the sfGFP gene, producing pET28a-T7-fapO-sfGFP (FIG. 5C). Each α-carboxyacyl-CoA was generated enzymatically from the corresponding malonic acid and CoA using the wild-type malonyl-CoA synthetase MatB or the engineered MatB variant, T207G/M306I. Next, the response of the cell-free TX-TL biosensor assay was evaluated by using various concentrations of MatB-generated native effector, mCoA, along with a fixed amount of purified FapR and T7-fapO-sfGFP. […] In addition, the maximum fluorescence signal was ˜15-fold greater than that in the absence of mCoA. Furthermore, to account for potential inhibition of the cell-free biosensor by the MatB reaction mixture, the FapR system was also assayed using a commercial standard of mCoA.
Dose-response analysis of the cell-free TX-TL FapR assay. A premixed solution for cell-free transcription-translation reactions was purchased from New England Biolabs (PURExpress In Vitro Protein Synthesis Kit). To a PCR tube on ice were added (in the order shown): 4 μL Solution A, 3 μL Solution B, 2.5 μM FapR, 250 nM T7-fapO-sfGFP and 0-150 μM of MatB-generated or commercial mCoA in a total volume of 10 μL. In parallel, control reactions in the absence of thioester were assembled by using boiled MatB in the presence of malonic acid. The reaction was incubated for 16 h at 37° C. and then diluted with PBS buffer to give a final total volume of 50 μL.
Cell-Free Characterization of FapR Promiscuity. A commercial kit for cell-free transcription-translation reactions was purchased from New England Biolabs (PURExpress In Vitro Protein Synthesis Kit). To a PCR tube on ice were added (in the order shown): 4 μL Solution A, 3 μL Solution B, 2.5 μM FapR, 250 nM T7-fapO-sfGFP and 150 μM of MatB-generated acyl-CoA or mmSNAC in a total volume of 10 μL (FIG. 9). In parallel, control reactions in the absence of thioester were assembled by using boiled MatB. The reaction was incubated for 16 h at 37° C. and then diluted with PBS buffer to give a final total volume of 50 μL.
Target sequence in this assay (O34835 other isoform, or with tags, fused parts or gaps): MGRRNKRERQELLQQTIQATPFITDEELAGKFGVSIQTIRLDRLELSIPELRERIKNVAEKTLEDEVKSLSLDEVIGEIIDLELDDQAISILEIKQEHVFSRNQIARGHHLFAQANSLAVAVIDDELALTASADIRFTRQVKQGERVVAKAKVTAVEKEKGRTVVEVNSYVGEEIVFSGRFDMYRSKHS

T2 sequence (O34835 other isoform, or with tags, fused parts or gaps): as above

For the compound `CC(C)(COP(=O)(O)OP(=O)(O)OC[C@H]1O[C@@H](n2cnc3c(N)ncnc32)[C@H](O)[C@@H]1OP(=O)(O)O)[C@@H](O)C(=O)NCCC(=O)NCCSC(=O)CCC(=O)O` [succinyl-CoA], the “effector status for FapR” value in assay [1] is recorded as “non-effectors”.
Take `CC(=O)SCCNC(=O)CCNC(=O)[C@H](O)C(C)(C)COP(=O)(O)OP(=O)(O)OC[C@H]1O[C@@H](n2cnc3c(N)ncnc32)[C@H](O)[C@@H]1OP(=O)(O)O` [acetyl-CoA]: the “effector status for FapR” value in assay [1] is recorded as “non-effectors”.
In the case of `CC(C)(COP(=O)(O)OP(=O)(O)OC[C@H]1O[C@@H](n2cnc3c(N)ncnc32)[C@H](O)[C@@H]1OP(=O)(O)O)[C@@H](O)C(=O)NCCC(=O)NCCSC(=O)CC(=O)O` [mCoA, malonyl-CoA], in assay [2], the EC50 was determined as 200 µM. The “maximum fluorescence signal relative to absence of mCoA” value in assay [3] (0-150 μM mCoA) was around 15 fold. Also, the “concentration range with linear fluorescence output of the cell-free biosensor” value in assay [3] (MatB-generated mCoA, 2.5 μM FapR, 250 nM T7-fapO-sfGFP) is “up to 150 μM”. For the same compound, the “fluorescence output, MatB-generated versus commercial mCoA” value in assay [3] (dose-response, FIG. 6) was “no significant difference”.
Take `CC(=O)NCCSC(=O)C(C)C(=O)O` (stereo not drawn) [mmSNAC]: the “de-repression activity relative to the corresponding CoA thioester” value in assay [3] (150 μM, fluorescence assay, FIG. 5D) is given as around 50%. For the same compound, the “effector of FapR as judged by cell-free fluorescence” value (“effector … by cell-free fluorescence” for short) in assay [3] (FIG. 5D) is “determined to be an effector”.
As to `CC(C(=O)O)C(=O)SCCNC(=O)CCNC(=O)[C@H](O)C(C)(C)COP(=O)(O)OP(=O)(O)OC[C@H]1O[C@@H](n2cnc3c(N)ncnc32)[C@H](O)[C@@H]1OP(=O)(O)O` (stereo partly drawn) [mmCoA, methylmalonyl-CoA], in assay [3] (FIG. 5D), the “fluorescence response (de-repression of FapR/T7-fapO-sfGFP) compared among thioesters” value was “statistically indistinguishable from that with the native ligand, mCoA”.
Take `CCC(=O)SCCNC(=O)CCNC(=O)[C@H](O)C(C)(C)COP(=O)(O)OP(=O)(O)OC[C@H]1O[C@@H](n2cnc3c(N)ncnc32)[C@H](O)[C@@H]1OP(=O)(O)O` [propionyl-CoA]: the “effector … by cell-free fluorescence” value in assay [3] (FIG. 5D) was “de-repression was not observed”. Also, the “effector status for FapR” value in assay [1] is reported as “non-effectors”.
For `CCCC(=O)SCCNC(=O)CCNC(=O)[C@H](O)C(C)(C)COP(=O)(O)OP(=O)(O)OC[C@H]1O[C@@H](n2cnc3c(N)ncnc32)[C@H](O)[C@@H]1OP(=O)(O)O` [butyryl-CoA], the “effector status for FapR” value in assay [1] was “non-effectors”.
As for `CCC(C(=O)O)C(=O)SCCNC(=O)CCNC(=O)[C@H](O)C(C)(C)COP(=O)(O)OP(=O)(O)OC[C@H]1O[C@@H](n2cnc3c(N)ncnc32)[C@H](O)[C@@H]1OP(=O)(O)O` (stereo partly drawn) [emCoA, ethylmalonyl-CoA], in assay [3] (FIG. 5D), the “effector … by cell-free fluorescence” value is recorded as “identified as effectors” and the “fluorescence response (de-repression of FapR/T7-fapO-sfGFP) compared among thioesters” value is given as “poorest effectors”.
With `CCCCC(C(=O)O)C(=O)SCCNC(=O)CCNC(=O)[C@H](O)C(C)(C)COP(=O)(O)OP(=O)(O)OC[C@H]1O[C@@H](n2cnc3c(N)ncnc32)[C@H](O)[C@@H]1OP(=O)(O)O` (stereo partly drawn) [bmCoA, butylmalonyl-CoA], in assay [3] (FIG. 5D), the “effector … by cell-free fluorescence” value is listed as “identified as effectors” and the “fluorescence response (de-repression of FapR/T7-fapO-sfGFP) compared among thioesters” value is given as “poorest effectors”.
As to `C#CCC(C(=O)O)C(=O)SCCNC(=O)CCNC(=O)[C@H](O)C(C)(C)COP(=O)(O)OP(=O)(O)OC[C@H]1O[C@@H](n2cnc3c(N)ncnc32)[C@H](O)[C@@H]1OP(=O)(O)O` (stereo partly drawn) [pgmCoA, propargylmalonyl-CoA], in assay [3] (FIG. 5D), the “effector … by cell-free fluorescence” value is “identified as effectors”; the “fluorescence response (de-repression of FapR/T7-fapO-sfGFP) compared among thioesters” value is “indistinguishable from that of mCoA and mmCoA”.
